In patent US6211439A, “Herbicide resistance in plants” (MGI Pharma, Inc, priority 1995, dated 2001):
≈ marks a conversion by molar mass, not a printed value. Read-outs that look alike come from different tables or passages of the source.

Legend:
QJ22 seedlings = assay: Seedling assay, QJ22 seedlings homozygous for the resistance trait; assay type: in vivo, maize; settings: seedling assays
Excerpt: Plants were regenerated from cell line QJ22 and seed obtained as described previously for XA17, supra. […] Seeds which are uniformly homozygous for the resistance trait were obtained as described for XA17, supra.

control seedlings = assay: Seedling assay, control (herbicide sensitive) seedlings; assay type: in vivo, maize; settings: Zea mays, read-out: concentration inhibiting shoot growth 50%
Excerpt: Seeds to be used as controls in the heritability assay were obtained from regenerated plants from an herbicide sensitive cell line of the same genetic background as line XA17. These regenerated plants were crossed with pollen obtained from a herbicide sensitive inbred B73 plant grown from seed. Seeds were harvested approximately forty days after pollination.
(§1) Twenty control seeds and ten XA17 seeds were surface sterilized with 2.6% sodium hypochlorite for twenty minutes and then washed with sterile distilled water. The seed was imbibed overnight in sterile water containing a small quantity of the fungicide, captan (N-trichloromethylthio-4-cyclohexene-1,2-dicarboximide). The mature embryos were then excised from the seed and plated scutellum side down on solid MS media without 2,4-D. Ten control seeds were plated on media containing no 214 and ten were plated in the presence of 6×10^-8M 214 which had been incorporated into the medium after autoclaving but before gelling. All ten XA17 seeds were plated in the presence of 6×10^-8 M 214. Seedlings were evaluated seven days after plating.
(§2) XA17 seeds homozygous for the resistance trait were obtained as described in Section 6.4.6. […] Assays were conducted as described in Section 6.4.5.

[1] = test system: AHAS activity of line XA17 tissue; assay: AHAS activity assay, line XA17 tissue; assay type: biochemical, maize; settings: for IC50: AHAS activity of line XA17 tissue, read-out: concentration inhibiting AHAS activity 50%
Description: (§3) Assays were conducted as a modification of the procedure of Smith et al. (1979, Molec. Gen. Genet. 169: 299-314). Plant cell culture material was ground with sand in a cold mortar and pestle in an equal quantity (w/v) of cell disruption media containing 0.05 M potassium phosphate (pH 7.0), 0.1 mM MgSO4, and 0.5 mM dithiothreitol. The preparation was centrifuged at 11,000×g for 20 minutes and the supernatant assayed for AHAS activity. Assays were conducted in 1 ml volumes containing 0.05 M potassium phosphate (pH 8.0), 40 mM pyruvate, 5 mM MgCl2, 0.1 mM thiamine pyrophosphate, 0.2 ml cell extract, and various concentrations of the herbicide of interest. The reaction mixtures were incubated at 30° C. for 75 minutes and the reaction terminated with the addition of 0.1 ml of 50% (v/v) H2 SO4. Following further incubation at 40° C. for 20 minutes, the acetoin formed from acetolactate by acidification was quantitated using the method of Westerfield (1945, J. Biol. Chem. 161: 495). To 0.2 ml of reaction mixture, 0.8 ml of water, 0.5 ml of 0.5% (w/v) creatine, and 0.5 ml of 5% (w/v) naphthol in 10% (w/v) NaOH was added. After mixing, solutions were incubated at room temperature for one hour. The development of pink color was quantitated by measuring light absorbance at 530 nm.
Assays were conducted to determine if acetohydroxyacid synthase extracted from line XA17 tissue was altered with respect to herbicide sensitivity. Such a change would signify that an alteration of this enzyme conferred the herbicide resistance. Assays were conducted as described supra.

line XA17 tissue = assay: Callus growth inhibition, resistant line XA17; assay type: cell-based, maize; settings: Zea mays, 336 h, read-out: level giving a 50% growth inhibition
Description: (§4) Therefore the effects of 214 were determined on callus growth. Quantities of tissue averaging 90 mg in size were transferred to nutrient agar maintenance media containing concentrations of 214 ranging from 0.003 to 3 mg per liter. Eight tissue pieces were placed on each plate with three plates per herbicide concentration. After 14 days growth, the tissue was weighed again.
Initially, the maximum level of 214 in which line XA17 would grow stably was determined. Stock tissue which had been maintained in the presence of 0.1 mg per liter 214 was transferred to media containing 214 levels ranging up to 30 mg per liter. Tissue was maintained for several subculture intervals and the growth rate evaluated.

[2] = test system: unselected maize callus tissue; assay: Callus culture growth inhibition, unselected tissue; assay type: cell-based; settings: Zea mays, 336 h, read-out: level giving a 50% growth inhibition
Description: as §4

[3] = test system: XA17 seedlings homozygous for the herbicide resistance trait; assay: Seedling assay, XA17 seedlings homozygous for the resistance trait; assay type: in vivo, maize; settings: for resistance of XA17 homozygous seedlings: vs control seedlings
Description: as §1, §2

[4] = test system: maize cell suspension cultures; assay: Reversal of herbicide growth inhibition by leucine, valine and isoleucine; assay type: cell-based; settings: 1 mM each of leucine, isoleucine, and valine; cell suspension cultures
Description: Growth inhibition studies were carried out in 125 ml flasks containing 30 ml of test media. 997 was filter sterilized and added to cooling media following autoclaving. Test media were innoculated with cells to give a settled cell volume (15 minutes without centrifugation) of 0.2 ml per 10 ml of suspension. After either six or seven days growth settled cell volumes were again quantitated.
Cells were tested to determine whether the herbicide induced inhibition of growth was the result of the decreased availability of the three branched chain amino acids. Cells were exposed to toxic levels of 997 (1×10^-6 M) in media either supplemented with 1 mM concentrations of leucine, valine, and isoleucine or with no supplementation. Culture growth rates in the absence of amino acid supplementation and in the presence of 1×10^-6 M 997 were reduced to 16% that of herbicide free cultures.
Experiments were conducted to determine the optimum supplementation levels of each of the three amino acids to obtain maximum herbicide protection and for gaining insight into the site of action of the compound.

[5] = test system: acetohydroxyacid synthase (AHAS); assay: AHAS activity assay, extract of maize cell cultures / control tissue; assay type: biochemical
Description: as §3, with “Plant” for “Assays were conducted as a modification of the procedure of Smith et al. (1979, Molec. Gen. Genet. 169: 299-314). Plant”, “Following further incubation at 40° C. for 20 minutes, the acetoin formed from acetolactate by acidification was quantitated using the method of Westerfield (1945, J. Biol. Chem. 161: 495).” left out, “hour.” for “hour. The development of pink color was quantitated by measuring light absorbance at 530 nm.”

[6] = test system: Callus tissue from line UV18; assay: Callus growth inhibition, line UV18; assay type: cell-based, maize; settings: line UV18 vs control tissue; based on herbicide amount giving 50% reduction in growth rate
Description: The UV18 cell line was first observed after 25 weeks of selection comprising 9 subculture intervals. The tissue in the selection procedure had been exposed to 0.1 mg per liter 214 for four subculture intervals followed by exposure to 0.3 mg per liter 214 for four subculture intervals. UV18 was identified during the ninth subculture as a rapidly growing sector of tissue with good morphology.
(§5) Callus tissue from line QJ22 was tested also with the compound 567. The numbers represent the fold increase in herbicide concentration that can be tolerated by each of the cell lines as compared to control tissue. The values were calculated based on the amount of herbicide that gave a 50% reduction in growth rate.

[7] = test system: Callus tissue from line QJ22; assay: Callus growth inhibition, line QJ22; assay type: cell-based, maize; settings: line QJ22 vs control tissue; based on herbicide amount giving 50% reduction in growth rate
Description: as §5

Tomato callus lines = settings: callus cultures initiated from regenerated plants (Thomas and Pratt, 1983); cited from earlier work

## COc1nc(C)nc(NC(=O)NS(=O)(=O)c2ccccc2Cl)n1 [chlorsulfuron, 2-chloro-N-[(4-methoxy-6-methyl-1,3,5-triazin-2-yl)aminocarbonyl]benzenesulfonamide]
QJ22 seedlings
  tolerance of QJ22 homozygous seedlings compared to control seedlings: no tolerance
Control seedlings
  IC50: 0.01 µM
[1]
  IC50: 0.3 µM
Line XA17 tissue
  IC50: 10 µg/mL (≈ 28 µM)
[2]
  IC50: 0.01 µg/mL (≈ 0.028 µM)
[3]; Zea mays, read-out: concentration inhibiting shoot growth 50%
  IC50: 0.1 µM
[3]
  resistance of XA17 homozygous seedlings: 10 fold

## CCc1cnc(C2=NC(=O)C(C)(C(C)C)N2)c(C(=O)O)c1 (stereo not drawn) [compound 499, 5-ethyl,2-(5-isopropyl-5-methyl-4-oxo-2-imidazolin-2-yl)nicotinic acid]
QJ22 seedlings
  tolerance of QJ22 homozygous seedlings compared to control seedlings: 30 fold
[4]
  effect of media supplementation with leucine, isoleucine, valine on growth inhibition: reversed the growth inhibitory effects
[5]; AHAS activity from maize cell cultures
  effect on AHAS enzyme activity: inhibited the enzyme activity
[5]; AHAS activity of control tissue, read-out: concentration inhibiting AHAS activity 50%
  IC50: 1 to 10 µM
[1]
  IC50: 3000 to 30000 µM
[1]; maize, ahas, line xa17
  change in herbicide sensitivity of AHAS, line XA17 vs control, on a concentration basis: ≥ 1000 fold
[6]
  Callus Growth Fold Increase in Tolerance: 100 fold
[7]
  Callus Growth Fold Increase in Tolerance: 30-50 fold
Line XA17 tissue
  IC50: > 30 µg/mL
[2]
  IC50: 0.1 to 0.3 µg/mL (≈ 0.346 to 1.04 µM)

## Cc1cc(C)n2nc(S(=O)(=O)Nc3c(Cl)cccc3Cl)nc2n1 [compound 567, 5,7-dimethyl-N-(2,6-dichlorophenyl)-1,2,4-triazolo[1,5-a)pyrimidine-2-sulfonamide]
QJ22 seedlings
  tolerance of QJ22 homozygous seedlings compared to control seedlings: no tolerance
Control seedlings; control seedlings
  IC50: 0.1 µM
Line XA17 tissue; line XA17, two week growth inhibition study
  IC50: > 30 µg/mL
[2]
  IC50: 0.1 to 0.3 µg/mL (≈ 0.269 to 0.806 µM)
[3]; 3×10^-6 M, seedlings homozygous for the resistance trait
  shoot growth inhibition at the highest concentration tested: no inhibition
[3]
  resistance of XA17 homozygous seedlings: at least 30 fold

## C[n+]1ccc(-c2cc[n+](C)cc2)cc1 [paraquat]
Tomato callus lines
  increase over wild-type in resistance: ≥ 30 fold
